Holding throughout (assay): growth of human tumour cells (NCI), 48 h
Test [1] relates to SK-MEL-2 melanoma.
In test [2] the test system is IGROV1 ovarian.
In test [3] the test system is KM12 colon.
Test [4] relates to NCI/ADR-RES ovarian.
Test [5] deals with SF-268 CNS.
The test system of test [6] is LOX IMVI melanoma.
For test [7], the system named is SF-539 CNS.
Test [8] concerns MALME-3M melanoma.
Test [9] concerns SK-MEL-5 melanoma.
For test [10], the system named is MDA-MB-435.

Structures are written as SMILES.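 48-hour exposure; five concentrations; linearly interpolated endpoints. GI50: concentration for 50% inhibition of growth. TGI: total growth inhibition.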 Bounds are passed on as bounds.

As to `Clc1ccc(N2COOC3(OOC2)C2CC4CC(C2)CC3C4)cc1`, the GI50 in test [1] was 10.5 µM; in test [2], 1.81 µM; in test [3], 2.02 µM; in test [4], 5.34 µM; in test [5], 5.88 µM; in [6] it was 0.15 µM. Moreover, the GI50 is 4.74 µM in test [7], 14.4 µM in [8], 1.25 µM in test [9] and 1.61 µM in [10]. The TGI in test [1] was more than 88.3 µM; in test [2], 6.22 µM; in [3], more than 100 µM; in [4] it was 74.9 µM; in [5] it was more than 67.4 µM; in test [6], 2.44 µM. The TGI in [7] is 59.3 µM; in test [8], more than 100 µM; in test [9], more than 24.2 µM; in [10], 13.2 µM.

`O=C1CC2(CCCc3sccc32)C(=O)N1` (stereo not given): the TGI in test [1], in [2], in test [3], in [4], in [5] and in test [6] was more than 100 µM each time. In addition, the TGI in test [7], in [8], in [9] and in [10] was more than 100 µM each time.

Regarding `Clc1ccc(Nc2ccnc(NCCNc3ccnc4cc(Cl)ccc34)n2)cc1`, the GI50 was 1.96 µM in [1]; 1.43 µM in test [2]; 1.62 µM in test [3]; 1.61 µM in [4]; 1.45 µM in [5]; 1.29 µM in [6]. Also, the GI50 in [7] was 1.3 µM; in [8], 1.74 µM; in [9], 1.31 µM; in [10] it was 1.37 µM. Moreover, the TGI in test [1] is 3.5 µM; in test [2], 3.12 µM; in test [3], 3.06 µM; in test [4], 3.51 µM; in test [5], 2.82 µM; in [6], 2.62 µM. The TGI stood at 2.8 µM in test [7], 3.48 µM in test [8], 2.59 µM in [9] and 2.68 µM in test [10].

For `COc1ccc(-c2nc3sccn3c2/C=C/C(=O)c2cc(OC)c(OC)c(OC)c2)cc1OC`, the GI50 was 1.87 µM in test [1]; 1.2 µM in test [2]; 2.04 µM in test [3]; 2.27 µM in [4]; 2.36 µM in [5]; 2.6 µM in test [6]. The GI50 was 1.78 µM in [7], 3.33 µM in test [8], 1.54 µM in test [9] and 2.84 µM in [10]. Also, the TGI is 4.65 µM in test [1]; 3.31 µM in test [2]; 4.53 µM in [3]; 5.98 µM in test [4]; 6.44 µM in test [5]; 10 µM in [6]. The TGI is 3.74 µM in [7], 54.1 µM in [8], 2.99 µM in test [9] and 19.1 µM in test [10].

As for `Nc1nc(SCC(=O)O)[nH]c(=O)c1N`, the TGI in test [1] was more than 100 µM; in [2], more than 100 µM; in [3] it was more than 100 µM; in test [4], more than 100 µM; in test [5], more than 100 µM; in [6], 42.8 µM. The TGI in test [7], in [8], in [9] and in test [10] was more than 100 µM throughout.
